Source: ChEMBL document CHEMBL1201862, “PubChem BioAssay data set” (2004)
Activity calls are given as the source filed them.

Experiments:
[1] = StAR promoter reporter inhibition counter-screen, dose response, counter-screen for LRH-1 inverse agonist project, cell-based, luminescence, luciferase reporter (AID 651969); assay type: functional
[2] = target: Nuclear receptor subfamily 5 group A member 2 (Homo sapiens, UniProt O00482); assay type: functional, cell-based;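 note: HEK293T cells transfected with LRH-1 and a StAR promoter luciferase reporter; potency for inhibitors that lower LRH-1 driven reporter light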
Chain of Nuclear receptor subfamily 5 group A member 2 (O00482 whole entry): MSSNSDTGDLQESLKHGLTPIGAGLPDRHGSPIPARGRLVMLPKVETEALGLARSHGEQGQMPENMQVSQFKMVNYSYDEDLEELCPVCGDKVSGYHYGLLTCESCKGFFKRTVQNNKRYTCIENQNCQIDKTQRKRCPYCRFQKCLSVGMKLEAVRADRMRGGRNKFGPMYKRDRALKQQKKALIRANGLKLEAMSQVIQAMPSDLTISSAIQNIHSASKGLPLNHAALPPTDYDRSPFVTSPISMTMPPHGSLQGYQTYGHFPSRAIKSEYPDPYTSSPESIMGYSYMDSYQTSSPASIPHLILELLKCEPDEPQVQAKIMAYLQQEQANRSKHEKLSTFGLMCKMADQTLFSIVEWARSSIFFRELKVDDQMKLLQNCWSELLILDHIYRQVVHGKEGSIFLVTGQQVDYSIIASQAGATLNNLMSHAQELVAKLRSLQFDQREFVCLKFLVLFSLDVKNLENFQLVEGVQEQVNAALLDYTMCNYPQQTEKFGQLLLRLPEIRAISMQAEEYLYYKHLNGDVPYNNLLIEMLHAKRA

Steroidogenic factor 1 = Steroidogenic factor 1 (Homo sapiens, UniProt Q13285); test: Counterscreen for inverse agonists of the liver receptor homolog-1 (LRH-1; NR5A2): Luminescence-based cell-based high throughput dose response assay to identify inverse agonists of the Steroidogenic Factor 1 Nuclear Receptor (SF1; NR5A1).; assay type: functional
Chain of Steroidogenic factor 1 (Q13285 whole entry): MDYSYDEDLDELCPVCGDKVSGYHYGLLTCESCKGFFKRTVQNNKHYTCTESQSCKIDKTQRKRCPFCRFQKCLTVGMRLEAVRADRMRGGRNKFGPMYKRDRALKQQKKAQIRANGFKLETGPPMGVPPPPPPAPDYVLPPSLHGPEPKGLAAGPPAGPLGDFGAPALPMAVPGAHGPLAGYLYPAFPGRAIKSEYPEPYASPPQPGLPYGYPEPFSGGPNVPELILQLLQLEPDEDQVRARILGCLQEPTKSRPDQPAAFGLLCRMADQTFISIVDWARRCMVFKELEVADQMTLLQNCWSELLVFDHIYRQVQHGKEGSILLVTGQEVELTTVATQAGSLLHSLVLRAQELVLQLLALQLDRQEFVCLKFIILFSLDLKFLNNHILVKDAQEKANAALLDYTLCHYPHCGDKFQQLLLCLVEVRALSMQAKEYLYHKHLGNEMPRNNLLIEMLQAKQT

[3] = target: T1, Corticotropin-releasing factor receptor 2/Corticotropin-releasing factor-binding protein (Homo sapiens, UniProt P24387+Q13324); test: Dose Response confirmation of uHTS hits for small molecule antagonists of the CRF-binding protein and CRF-R2 receptor complex.; assay type: functional; conditions: read-out: IC50_Mean
T1 sequence (Q13324 whole entry): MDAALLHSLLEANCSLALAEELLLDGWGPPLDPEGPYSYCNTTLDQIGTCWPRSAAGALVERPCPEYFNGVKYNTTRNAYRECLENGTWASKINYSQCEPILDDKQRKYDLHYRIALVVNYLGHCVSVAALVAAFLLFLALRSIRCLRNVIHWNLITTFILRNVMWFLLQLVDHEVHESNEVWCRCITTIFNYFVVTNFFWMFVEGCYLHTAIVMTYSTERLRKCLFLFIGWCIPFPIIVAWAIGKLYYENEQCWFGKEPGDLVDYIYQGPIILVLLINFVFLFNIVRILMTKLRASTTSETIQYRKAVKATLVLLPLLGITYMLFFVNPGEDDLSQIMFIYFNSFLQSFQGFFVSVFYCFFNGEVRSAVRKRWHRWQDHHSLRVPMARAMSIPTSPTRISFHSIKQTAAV
T1 sequence (P24387 whole entry): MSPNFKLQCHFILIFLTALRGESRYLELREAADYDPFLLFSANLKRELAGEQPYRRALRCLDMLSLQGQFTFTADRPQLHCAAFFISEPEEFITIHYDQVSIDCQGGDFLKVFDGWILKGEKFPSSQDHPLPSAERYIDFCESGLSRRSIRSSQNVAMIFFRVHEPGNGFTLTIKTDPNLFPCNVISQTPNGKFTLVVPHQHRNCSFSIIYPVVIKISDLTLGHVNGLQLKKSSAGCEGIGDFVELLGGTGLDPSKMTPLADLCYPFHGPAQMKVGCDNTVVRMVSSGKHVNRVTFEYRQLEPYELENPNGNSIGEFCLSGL

[4] = CRF-BP/CRF-R2 complex antagonists, dose response, cell-based, uHTS hits, 384-well (AID 651639); assay type: functional, Homo sapiens; conditions: read-out: IC50_Mean
[5] = target: T2, Calpain-2 catalytic subunit (Sus scrofa, UniProt P43367); test: pig calpain II inhibitor potency, dose response, biochemical, fluorogenic peptide substrate (AID 1420); assay type: functional
T2 sequence (P43367 whole entry): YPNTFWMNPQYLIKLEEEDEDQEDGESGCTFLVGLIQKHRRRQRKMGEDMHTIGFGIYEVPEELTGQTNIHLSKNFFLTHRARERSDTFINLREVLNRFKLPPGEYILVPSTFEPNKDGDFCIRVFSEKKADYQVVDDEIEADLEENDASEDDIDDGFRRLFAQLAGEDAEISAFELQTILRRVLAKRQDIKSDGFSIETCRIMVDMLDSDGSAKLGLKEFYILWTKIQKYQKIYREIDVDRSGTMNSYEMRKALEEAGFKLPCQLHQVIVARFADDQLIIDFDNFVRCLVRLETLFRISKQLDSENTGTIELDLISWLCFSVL

[6] = target: T1, Corticotropin-releasing factor receptor 2/Corticotropin-releasing factor-binding protein; test: activators of CRF receptor 2 with binding protein – uHTS hits, confirmation (AID 602473); assay type: functional; conditions: read-out: EC50_Mean
Leucine aminopeptidase = target: T3, Leucine aminopeptidase (Plasmodium falciparum 3D7, UniProt Q8IL11); test: P. falciparum M17LAP inhibitors, primary screen, biochemical, fluorogenic H-Leu-NHMec substrate, 1536-well (AID 1619); assay type: functional
T3 sequence (Q8IL11 whole entry): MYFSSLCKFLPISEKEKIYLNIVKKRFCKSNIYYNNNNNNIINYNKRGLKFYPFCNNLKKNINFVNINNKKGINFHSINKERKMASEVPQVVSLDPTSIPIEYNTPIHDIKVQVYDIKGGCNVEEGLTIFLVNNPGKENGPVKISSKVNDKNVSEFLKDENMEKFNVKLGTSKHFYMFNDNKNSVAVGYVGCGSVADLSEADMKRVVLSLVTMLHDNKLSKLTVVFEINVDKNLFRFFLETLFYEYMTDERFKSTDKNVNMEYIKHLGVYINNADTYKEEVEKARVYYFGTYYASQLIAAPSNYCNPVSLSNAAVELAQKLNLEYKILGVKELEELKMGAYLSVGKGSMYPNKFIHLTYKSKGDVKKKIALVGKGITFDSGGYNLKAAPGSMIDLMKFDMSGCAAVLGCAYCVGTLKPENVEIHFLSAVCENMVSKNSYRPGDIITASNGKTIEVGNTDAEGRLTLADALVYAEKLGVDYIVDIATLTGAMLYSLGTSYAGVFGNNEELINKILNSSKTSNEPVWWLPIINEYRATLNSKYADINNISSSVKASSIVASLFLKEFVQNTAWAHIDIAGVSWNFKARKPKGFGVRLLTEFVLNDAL

Aminopeptidase N = target: T4, Aminopeptidase N (Plasmodium falciparum FcB1/Columbia, UniProt O96935); test: P. falciparum M1AAP inhibitors, biochemical, fluorogenic H-Leu-NHMec substrate, 1536-well (AID 1445); parameters: species or system Plasmodium falciparum 3D7, 3D7
T4 sequence (O96935 whole entry): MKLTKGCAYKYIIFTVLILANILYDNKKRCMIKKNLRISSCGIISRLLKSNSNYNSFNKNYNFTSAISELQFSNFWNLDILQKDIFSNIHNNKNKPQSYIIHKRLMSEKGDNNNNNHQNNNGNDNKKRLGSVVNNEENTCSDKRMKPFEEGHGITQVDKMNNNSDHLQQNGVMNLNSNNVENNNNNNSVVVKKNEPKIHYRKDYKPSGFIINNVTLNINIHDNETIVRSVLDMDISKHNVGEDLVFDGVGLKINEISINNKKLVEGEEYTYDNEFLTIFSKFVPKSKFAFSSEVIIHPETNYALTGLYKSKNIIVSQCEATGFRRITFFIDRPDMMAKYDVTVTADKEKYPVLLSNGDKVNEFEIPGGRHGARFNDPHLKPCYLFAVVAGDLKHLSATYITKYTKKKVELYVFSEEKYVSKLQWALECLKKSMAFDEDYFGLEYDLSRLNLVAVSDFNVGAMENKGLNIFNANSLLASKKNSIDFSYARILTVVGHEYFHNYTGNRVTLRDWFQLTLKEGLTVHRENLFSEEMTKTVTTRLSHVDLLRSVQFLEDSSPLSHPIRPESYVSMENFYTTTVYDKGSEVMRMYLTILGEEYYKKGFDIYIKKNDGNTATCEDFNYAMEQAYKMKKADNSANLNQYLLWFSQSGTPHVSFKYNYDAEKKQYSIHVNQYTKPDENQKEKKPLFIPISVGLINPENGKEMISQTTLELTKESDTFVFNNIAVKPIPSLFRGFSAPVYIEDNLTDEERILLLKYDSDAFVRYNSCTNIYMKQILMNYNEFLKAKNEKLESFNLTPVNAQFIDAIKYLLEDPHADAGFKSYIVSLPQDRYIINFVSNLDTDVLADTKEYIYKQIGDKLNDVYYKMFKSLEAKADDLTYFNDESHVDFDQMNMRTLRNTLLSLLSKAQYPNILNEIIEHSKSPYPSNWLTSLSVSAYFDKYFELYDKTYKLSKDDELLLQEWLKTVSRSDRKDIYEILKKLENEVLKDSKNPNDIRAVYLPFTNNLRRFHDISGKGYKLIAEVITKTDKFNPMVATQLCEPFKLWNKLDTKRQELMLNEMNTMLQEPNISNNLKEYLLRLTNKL

[7] = target: T5, Long-chain-fatty-acid--AMP ligase FadD28 (Mycobacterium tuberculosis, UniProt P9WQ59); test: Fluorescence polarization aasay to screen for inhibitors that compete for the binding of FadD28 to a bisubstrate Measured in Biochemical System Using Plate Reader - 2147-01_Inhibitor_Dose_CherryPick_Activity.; assay type: functional, Mycobacterium tuberculosis H37Rv
T5 sequence (P9WQ59 whole entry): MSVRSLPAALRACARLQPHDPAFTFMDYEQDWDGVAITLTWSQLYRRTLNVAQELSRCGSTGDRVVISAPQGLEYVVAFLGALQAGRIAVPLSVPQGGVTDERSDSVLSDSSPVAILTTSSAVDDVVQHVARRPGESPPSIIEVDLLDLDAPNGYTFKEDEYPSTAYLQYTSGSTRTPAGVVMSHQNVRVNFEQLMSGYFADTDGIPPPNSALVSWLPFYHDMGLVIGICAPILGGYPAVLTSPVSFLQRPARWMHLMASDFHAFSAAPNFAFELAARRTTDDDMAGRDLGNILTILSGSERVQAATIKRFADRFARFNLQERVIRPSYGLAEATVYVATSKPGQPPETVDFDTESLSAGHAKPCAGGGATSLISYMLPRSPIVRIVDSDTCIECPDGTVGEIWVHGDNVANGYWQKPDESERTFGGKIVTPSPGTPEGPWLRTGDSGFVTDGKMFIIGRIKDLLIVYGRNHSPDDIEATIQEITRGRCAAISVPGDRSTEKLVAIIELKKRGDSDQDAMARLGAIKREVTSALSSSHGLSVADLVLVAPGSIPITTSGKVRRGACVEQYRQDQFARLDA

[8] = inhibitors of clade B AD8 Env fusion, dose response, cell-based, cherry-pick (AID 652062); assay type: functional;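 note: luciferase signal from cell-cell fusion driven by HIV-1 clade B AD8 Env; potency is for inhibitors of fusion seen as a drop in luminescence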
[9] = off-target signal loss in HeLa-CEM21 co-culture – HeLa F-luc CTL cells, cherry-picked, counter-screen for HIV-1 Env fusion inhibitor project, dose response (AID 652040); assay type: functional, cell-based;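 note: potency for signal decrease marking cytotoxic or nonspecific inhibition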
[10] = inhibitors of HIV Env-driven cell fusion, dose response, cherry-pick (AID 652057); assay type: functional, cell-based
[11] = ZM109 Env clade C HIV-1 fusion inhibitors, dose response, HeLa effector, CEM target cells, luciferase, cherry-pick (AID 652058); assay type: functional, cell-based
[12] = target: T6, Methionyl-tRNA synthetase, putative (Trypanosoma brucei brucei, UniProt Q38C91); assay type: functional, Trypanosoma brucei brucei strain 927/4 GUTat10.1
T6 sequence (Q38C91 whole entry): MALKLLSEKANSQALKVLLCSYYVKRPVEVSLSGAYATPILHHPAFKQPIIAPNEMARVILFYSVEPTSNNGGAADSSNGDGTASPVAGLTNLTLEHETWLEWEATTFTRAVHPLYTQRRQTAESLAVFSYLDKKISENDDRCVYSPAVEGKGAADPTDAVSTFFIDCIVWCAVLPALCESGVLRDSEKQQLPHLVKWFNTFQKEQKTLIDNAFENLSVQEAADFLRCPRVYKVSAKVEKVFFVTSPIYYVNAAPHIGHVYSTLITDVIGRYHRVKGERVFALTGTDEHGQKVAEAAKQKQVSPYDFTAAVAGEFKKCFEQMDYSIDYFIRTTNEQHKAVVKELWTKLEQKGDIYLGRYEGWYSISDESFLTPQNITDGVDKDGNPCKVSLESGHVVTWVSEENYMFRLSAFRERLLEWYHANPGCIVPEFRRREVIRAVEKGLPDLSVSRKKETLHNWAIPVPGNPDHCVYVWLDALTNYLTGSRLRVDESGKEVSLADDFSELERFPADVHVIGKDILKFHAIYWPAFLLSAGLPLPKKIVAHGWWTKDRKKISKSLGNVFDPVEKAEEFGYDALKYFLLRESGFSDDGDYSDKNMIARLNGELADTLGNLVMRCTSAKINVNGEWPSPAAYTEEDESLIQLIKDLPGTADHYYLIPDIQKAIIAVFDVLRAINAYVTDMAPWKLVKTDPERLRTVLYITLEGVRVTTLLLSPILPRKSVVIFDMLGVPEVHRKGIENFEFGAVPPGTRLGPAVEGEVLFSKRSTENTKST

[13] = Counterscreen for inhibitors of Trypanosoma brucei methionyl tRNA synthetase (MetRS): Luminescence-based cell-based high throughput dose response assay to identify compounds that are cytotoxic to Jurkat human T lymphocyte cells.; assay type: functional
[14] = target: T6, Methionyl-tRNA synthetase, putative; assay type: functional, Trypanosoma brucei brucei strain 927/4 GUTat10.1; remark: listed apart in the source

## Cc1ccccc1C(=O)NC1CCN(CC(=O)Nc2ccc(Br)cc2)CC1
[1]
  IC50: 35.9 µM (inactive)
[2]
  IC50: 35.9 µM (inactive)
Steroidogenic factor 1
  IC50: 3.32 µM (active)

## CS(=O)(=O)c1ccc(-c2cc(NC=O)c3ncc(-c4ccc(F)cc4)n3c2)cc1
[1]
  IC50: 12.4 µM (inactive)
[2]
  IC50: 4.22 µM (active)
Steroidogenic factor 1
  IC50: 2.73 µM (active)

## O=C(c1ccco1)N(Cc1cccc([N+](=O)[O-])c1)c1ccc(Br)cc1
[3]
  IC50: < 0.368 µM (active)
[4]
  IC50: > 20 µM (inactive)
[5]
  IC50: 12 µM (not active)
[6]
  EC50: > 53 µM (inactive)

## COc1ccc(CCNC(=O)CSc2ccc(NC(C)=O)cc2)cc1OC
[1]
  IC50: 35.9 µM (inactive)
[2]
  IC50: 17.4 µM (inactive)
Steroidogenic factor 1
  IC50: 2.27 µM (active)

## COc1ccc(/C=C2\SC(NS(=O)(=O)c3cccs3)=NC2=O)cc1
Leucine aminopeptidase
  IC50: 31 µM (active)
[3]
  IC50: 36.5 µM (active)
[4]
  IC50: > 20 µM (inactive)
Aminopeptidase N
  IC50: 41.1 µM (active)
[6]
  EC50: > 53 µM (inactive)

## O=C(CN1C(=O)NC2(CCOc3ccccc32)C1=O)c1ccc(Cl)s1 (stereo unspecified)
[7]
  AC50: > 100 µM (inactive)

## COc1ccc(Nc2c(CCc3ccccc3)nc3nc(C)cc(C)n23)cc1
[8]
  AC50: 4.63 µM (active)
[9]
  AC50: 4.03 µM (active)
[10]
  AC50: 5.27 µM (active)
[11]
  AC50: 6.28 µM (active)

## O=C(NNC(=O)c1cc(-c2cccnc2)nc2ccccc12)Nc1ccc(Cl)cc1
[12]
  IC50: 39.5 µM (inactive)
[13]
  IC50: 63 µM (inactive)
[14]
  IC50: 25.8 µM (inactive)

## O=C(OCC(=O)c1c[nH]c2ccccc12)c1ccc(F)c(S(=O)(=O)N2CCOCC2)c1
[7]
  AC50: 60.2 µM (active)

## O=C(NCc1ccco1)c1cccc(Nc2nc3ccc(Br)cc3[nH]2)c1
[12]
  IC50: 22.3 µM (inactive)
[5]
  IC50: 11.9 µM (not active)
[14]
  IC50: 13.5 µM (inactive)

## O=C(NCc1ccco1)c1cccc(Nc2nc3cc(Br)ccc3[nH]2)c1
[13]
  IC50: 83.3 µM (inactive)
